Measured values as given in patent US20070213301A1 (ACHILLION PHARMACEUTICALS, INC., priority 2006, published 2007).

System: HCV replicon
Test: HCV replicon replication assay (NPTII ELISA)
Type: cell-based, Hepatitis C virus (Huh-7 cells)
Conditions: Hepatitis C virus, Huh-7, 72 h, inhibition of HCV replicon replication in Huh-7 HCV replicon-containing cells, three days incubation, NPT level by ELISA; read-out: EC50
Experimental: Compounds claimed herein are tested for the ability to inhibit viral replication of the Hepatitis C replicon in cultured cells in which the HCV replicon construct has been incorporated. The HCV replicon system was described by Bartenschlager, et. al (Science, 285, pp. 110-113 (1999)). The replicon system is predictive of in vivo anti-HCV activity; compounds that are active in humans uniformly evidence activity in the replicon assay.
In this assay HCV replicon containing cells are treated with different concentrations of the test compound to ascertain the ability of the test compound to suppress replication of the HCV replicon. As a positive control, HCV replicon-containing cells are treated with different concentrations of interferon alpha, a known inhibitor of HCV replication. The replicon assay system includes Neomycin Phosphotransferase (NPT) as a component of the replicon itself in order to detect the transcription of replicon gene products in the host cell. Cells in which the HCV replicon is actively replicating have high levels of NPT; the level of NPT is proportional to HCV replication. […] The NPT level of each sample is measured using a captured ELISA.
The HCV replicon contains, 5′-3′, the HCV-IRES, the neomycin phosphotransferase (neo) gene, the IRES of encephalomyocarditis virus, which directs translation of HCV sequences NS3 to NS5B, and the 3′-NTR. The sequence of the HCV replicon has been deposited in GenBank (Accession no. AJ242652).
The replicon is transfected into Huh-7 cells using standard methods such as electroporation.
The cells are then seeded onto 96-well plates at a density of 6000-7500 cells/100 microliters/well (6-7.5×10^5 cells/10 ml/plate). The plates are then incubated at 37° C. in a 5% CO2 incubator.
HCV replicon-containing cells are rinsed with once PBS once; 2 mls of trypsin are then added. Cells are incubated at 37° C. in a 5% CO2 incubator for 3-5 minutes. 10 mls of complete medium is added to stop the reaction. Cells are blown gently, put into a 15 ml tube, and spun at 1200 rpm for four minutes. The trypsin/medium solution is removed and 5 mls of medium (500 ml DMEM (high glucose)) from BRL catalog #12430-054; 50 mls 10% FBS, 5% Geneticin G418 (50 mg/ml, BRL catalog #10131-035), 5 ml MEM non-essential amino acids (100× BRL #11140-050) and 5 ml pen-strep (BRL #15140-148) is added. The cells and media are mixed carefully
Cells are plated with screening medium (500 ml DMEM (BRL #21063-029), 50 ml FBS (BRL #10082-147) and 5 ml MEM non-essential amino acid (BRL #11140-050) at 6000-7500 cells/100 μl/well of 96 well plate (6-7.5×10^5 cells/10 ml/plate). Plates are placed into 37° C. 5% CO2 incubator overnight.
The following morning, drugs (test compounds or interferon alpha) are diluted in 96 well U bottom plates with media or DMSO/media, depending on the final concentration chosen for screening. Generally for 6 concentrations of each test compounds ranging from 10 micromolar to 0.03 micromolar are applied. 100 μl of the test compound dilution is placed in wells of the 96 well plate containing the HCV replicon cells. Media without drug is added to some wells as a negative controls. DMSO is known to affect cell growth. Therefore, if drugs diluted in DMSO are used, all wells, including negative control (media only) and positive control (interferon alpha) wells, must contain the same concentration of DMSO, for single dose screening. The plates are incubated at 37° C. in a humidified 5% CO2 environment for three days.
On day four, the NTPII assay is quantitated. The medium is poured from the plates and the plates are washed once in 200 μl of PBS. The PBS is then decanted and the plates tapped in a paper towel to remove any remaining PBS. Cells are fixed in situ with 100 μl/well of pre-cooled (−20° C.) methanol:acetone (1:1) and the plates are placed at −20° C. for 30 minutes.
The fixing solution is poured from the plates and the plates allowed to air-dry completely (approximately one hour). […]

`CCCCCOc1ccc(N(C(=O)c2cccnc2)c2nc(-c3nc4ccccc4s3)cs2)cc1C(F)(F)F` [Compound 102, N-(4-(benzo[d]thiazol-2-yl)thiazol-2-yl)-N-(4-(pentyloxy)-3-(trifluoromethyl)phenyl)nicotinamide] showed an EC50 of under 1000 nM.

Compound `CCCCCCCCOc1ccc(N(C(=O)C(=O)OC)c2nc(-c3ccc(F)c(F)c3)cs2)cc1` [Compound 58, methyl 2-((4-(3,4-difluorophenyl)thiazol-2-yl)(4-(octyloxy)phenyl)amino)-2-oxoacetate] has an EC50 of under 1000 nM.

`CCCCCCCCOc1ccc(N(C(C)=O)c2nc(-c3cccnc3)cs2)cc1` [Compound 68, N-(4-(octyloxy)phenyl)-N-(4-(pyridin-3-yl)thiazol-2-yl)acetamide] showed an EC50 of under 1000 nM.

`CC/C=N/N(c1ccc(OCCCCCCCC)cc1)c1nc(-c2cccnc2)cs1` [Compound 188, (E)-2-(1-(4-(octyloxy)phenyl)-2-propylidenehydrazinyl)-4-(pyridin-3-yl)thiazolo] showed an EC50 of under 1000 nM.

`CCCCCCCCOc1ccc(N(C(=O)c2cccnc2)c2nc(-c3nc4ccccc4s3)cs2)cc1` [Compound 101, N-(4-(benzo[d]thiazol-2-yl)thiazol-2-yl)-N-(4-(octyloxy)phenyl)nicotinamide] showed an EC50 of 1000 to 10000 nM.

`CCCCOc1ccc(N(C(N)=O)c2nc(-c3ccc(F)cc3)cs2)cc1C(F)(F)F` [Compound 135, 1-(4-butoxy-3-(trifluoromethyl)phenyl)-1-(4-(4-fluorophenyl)thiazol-2-yl)urea] was tested, and the EC50 was under 1000 nM.

With `CCCCCCCOc1ccc(N(C(=O)C(=O)OC)c2nc(-c3cccnc3)cs2)cc1` [Compound 40, methyl 2-((4-(heptyloxy)phenyl)(4-(pyridin-3-yl)thiazol-2-yl)amino)-2-oxoacetate] the EC50 was under 1000 nM.

Compound `COc1ccc(N(C(N)=O)c2nc(-c3cccnc3)cs2)cc1C(F)(F)F` [Compound 84, 1-(4-methoxy-3-(trifluoromethyl)phenyl)-1-(4-(pyridin-3-yl)thiazol-2-yl)urea] has an EC50 of under 1000 nM.

`CCCCCOc1ccc(N(C(=O)c2cc(C)on2)c2nc(-c3nc4ccccc4s3)cs2)cc1C(F)(F)F` [Compound 94, N-(4-(benzo[d]thiazol-2-yl)thiazol-2-yl)-5-methyl-N-(4-(pentyloxy)-3-(trifluoromethyl)phenyl)isoxazole-3-carboxamide] was tested, and the EC50 was under 1000 nM.

Compound `CCCCCCCCOc1ccc(N(C(=O)NC(C)(C)C)c2nc(-c3cccnc3)cs2)cc1` [Compound 74, 3-tert-butyl-1-(4-(octyloxy)phenyl)-1-(4-(pyridin-3-yl)thiazol-2-yl)urea] has an EC50 of 1000 to 10000 nM.

Compound `CCCCCOc1ccc(N(C(=O)C(=O)OC)c2nc(C(=O)Nc3cccnc3)cs2)cc1C(F)(F)F` [Compound 30, methyl 2-oxo-2-((4-(pentyloxy)-3-(trifluoromethyl)phenyl)(4-(pyridin-3-ylcarbamoyl)thiazol-2-yl)amino)acetate] has an EC50 of under 1000 nM.

`CCCCCN(C)c1ccc(N(C(N)=O)c2nc(-c3ccc4c(c3)NC(=O)CO4)cs2)cc1C(F)(F)F` [Compound 105, 1-(4-(methyl(pentyl)amino)-3-(trifluoromethyl)phenyl)-1-(4-(3-oxo-3,4-dihydro-2H-benzo[b][1,4]oxazin-6-yl)thiazol-2-yl)urea] showed an EC50 of 1000 to 10000 nM.

`CCCCCCCCOc1ccc(N(C(=O)COC(C)=O)c2nc(-c3ccc(F)cc3)cs2)cc1` [Compound 60, 2-((4-(4-fluorophenyl)thiazol-2-yl)(4-(octyloxy)phenyl)amino)-2-oxoethyl acetate] was tested, and the EC50 was under 1000 nM.

`CCCCCCCCOc1ccc(N(C(=O)CCC(=O)O)c2nc(-c3cccnc3)cs2)cc1C(F)(F)F` [Compound 161, 4-((4-(octyloxy)-3-(trifluoromethyl)phenyl)(4-(pyridin-3-yl)thiazol-2-yl)amino)-4-oxobutanoic acid] showed an EC50 of under 1000 nM.

Compound `CCCCCCCCc1ccc(N(C(N)=O)c2nc(-c3cccnc3)c(F)s2)cc1C(F)(F)F` [Compound 178, 1-(5-fluoro-4-(pyridin-3-yl)thiazol-2-yl)-1-(4-octyl-3-(trifluoromethyl)phenyl)urea] has an EC50 of under 1000 nM.

`CCCCCOc1ccc(N(C(=O)COC(C)=O)c2nc(-c3cccnc3)cs2)cc1C(F)(F)F` [Compound 33, 2-oxo-2-((4-(pentyloxy)-3-(trifluoromethyl)phenyl)(4-(pyridin-3-yl)thiazol-2-yl)amino)ethyl acetate] showed an EC50 of under 1000 nM.

With `CCCCCCCCc1ccc(N(C(=O)CC(C)(C)c2c(C)cc(C)cc2OP(=O)(O)O)c2nc(-c3cccnc3)c(F)s2)cc1C(F)(F)F` [Compound 182, 2-(4-((5-fluoro-4-(pyridin-3-yl)thiazol-2-yl)(4-octyl-3-(trifluoromethyl)phenyl)amino)-2-methyl-4-oxobutan-2-yl)-3,5-dimethylphenyl dihydrogen phosphate] the EC50 was 1000 to 10000 nM.

Work on `CCCCCOc1ccc(N(C)c2nc(-c3ccc(CN4CCOCC4)nc3)cs2)cc1C(F)(F)F` [Compound 8, N-methyl-4-(6-(morpholinomethyl)pyridin-3-yl)-N-(4-(pentyloxy)-3-(trifluoromethyl)phenyl)thiazol-2-amine] yielded an EC50 of 1000 to 10000 nM.

With `CCCCCOc1ccc(N(C(=O)C(=O)OC)c2nc(-c3cccnc3)cs2)cc1F` [Compound 27, methyl 2-((3-fluoro-4-(pentyloxy)phenyl)(4-(pyridin-3-yl)thiazol-2-yl)amino)-2-oxoacetate] the EC50 was under 1000 nM.

`CCCCCCOc1ccc(N(C(N)=O)c2nc(-c3ccccn3)cs2)cc1` [Compound 123, 1-(4-(hexyloxy)phenyl)-1-(4-(pyridin-2-yl)thiazol-2-yl)urea] gave an EC50 of under 1000 nM.

Work on `CCCCCCCCOc1ccc(N(C(=O)COC(C)=O)c2nc(-c3ccc(F)c(F)c3)cs2)cc1` [Compound 57, 2-((4-(3,4-difluorophenyl)thiazol-2-yl)(4-(octyloxy)phenyl)amino)-2-oxoethyl acetate] yielded an EC50 of under 1000 nM.

`CCCCCCCCOc1ccc(N(C(=O)C(=O)OC)c2nc(-c3ccc(Cl)s3)cs2)cc1` [Compound 97, methyl 2-((4-(5-chlorothiophen-2-yl)thiazol-2-yl)(4-(octyloxy)phenyl)amino)-2-oxoacetate] showed an EC50 of under 1000 nM.

Compound `O=C(O)CCC(=O)N(c1ccc(OCCCCc2cccs2)c(C(F)(F)F)c1)c1nc(-c2cccnc2)c(F)s1` [Compound 174, 4-((5-fluoro-4-(pyridin-3-yl)thiazol-2-yl)(4-(4-(thiophen-2-yl)butoxy)-3-(trifluoromethyl)phenyl)amino)-4-oxobutanoic acid] has an EC50 of under 1000 nM.

`CCCCCCCCOc1ccc(N(C(=O)CO)c2nc(-c3cccnc3)cs2)cc1C(F)(F)F` [Compound 159, 2-hydroxy-N-(4-(octyloxy)-3-(trifluoromethyl)phenyl)-N-(4-(pyridin-3-yl)thiazol-2-yl)acetamide] was tested, and the EC50 was under 1000 nM.

`CCCCCCCCOc1ccc(N(C(=O)NCC(=O)O)c2nc(-c3cccnc3)c(F)s2)cc1C(F)(F)F` [Compound 166, 2-(3-(5-fluoro-4-(pyridin-3-yl)thiazol-2-yl)-3-(4-(octyloxy)-3-(trifluoromethyl)phenyl)ureido)acetic acid] showed an EC50 of under 1000 nM.

`CCCCCCCCOc1ccc(N(C(=O)CN(C)C)c2nc(-c3cccnc3)c(F)s2)cc1C(F)(F)F` [Compound 167, 2-(dimethylamino)-N-(5-fluoro-4-(pyridin-3-yl)thiazol-2-yl)-N-(4-(octyloxy)-3-(trifluoromethyl)phenyl)acetamide] showed an EC50 of under 1000 nM.
